{"source": "ChEMBL document CHEMBL5649166", "about": "“RIP3 induces apoptosis independent of pronecrotic kinase activity” (Mol Cell, 2014)", "key": {"3T3SA [1]": {"system": "3T3SA", "experiment": "Induction of apoptosis in mouse 3T3SA cells transfected with RIP3 shRNA assessed as accumulation of cleaved caspase-3 by measuring percentage of cleaved caspase-3 positive cells measured after 8 hrs by immunoblot analysis (reference value: 11%)", "format": "toxicity, cell-based"}, "3T3SA [2]": {"system": "3T3SA", "experiment": "Induction of apoptosis in RIP3shRNA transfected mouse 3T3SA cells co-transfected with shRNA-resistant RIP3 T257A mutant pre-tranfected for 16 hrs followed by compound addition and measured after 18 hrs in presence of zVAD by Cell Titer-Glo luminescent cell viability assay", "format": "toxicity, cell-based"}, "MEF [3]": {"system": "MEF", "experiment": "Induction of apoptosis in MEF cells expressing wildtype RIP3 incubated for 18 hrs by Cell Titer-Glo luminescent cell viability assay", "format": "toxicity, cell-based", "settings": "mouse"}, "MEF [4]": {"system": "MEF", "experiment": "Induction of apoptosis in MEF cells expressing RIP3 K51A/K51A mutant incubated for 18 hrs by Cell Titer-Glo luminescent cell viability assay", "format": "toxicity, cell-based", "settings": "mouse"}, "[5]": {"biological_target": "Nuclear factor NF-kappa-B complex (Homo sapiens) (UniProt Q00653+P19838+Q04206)", "sequence (P19838 whole entry, looked up)": "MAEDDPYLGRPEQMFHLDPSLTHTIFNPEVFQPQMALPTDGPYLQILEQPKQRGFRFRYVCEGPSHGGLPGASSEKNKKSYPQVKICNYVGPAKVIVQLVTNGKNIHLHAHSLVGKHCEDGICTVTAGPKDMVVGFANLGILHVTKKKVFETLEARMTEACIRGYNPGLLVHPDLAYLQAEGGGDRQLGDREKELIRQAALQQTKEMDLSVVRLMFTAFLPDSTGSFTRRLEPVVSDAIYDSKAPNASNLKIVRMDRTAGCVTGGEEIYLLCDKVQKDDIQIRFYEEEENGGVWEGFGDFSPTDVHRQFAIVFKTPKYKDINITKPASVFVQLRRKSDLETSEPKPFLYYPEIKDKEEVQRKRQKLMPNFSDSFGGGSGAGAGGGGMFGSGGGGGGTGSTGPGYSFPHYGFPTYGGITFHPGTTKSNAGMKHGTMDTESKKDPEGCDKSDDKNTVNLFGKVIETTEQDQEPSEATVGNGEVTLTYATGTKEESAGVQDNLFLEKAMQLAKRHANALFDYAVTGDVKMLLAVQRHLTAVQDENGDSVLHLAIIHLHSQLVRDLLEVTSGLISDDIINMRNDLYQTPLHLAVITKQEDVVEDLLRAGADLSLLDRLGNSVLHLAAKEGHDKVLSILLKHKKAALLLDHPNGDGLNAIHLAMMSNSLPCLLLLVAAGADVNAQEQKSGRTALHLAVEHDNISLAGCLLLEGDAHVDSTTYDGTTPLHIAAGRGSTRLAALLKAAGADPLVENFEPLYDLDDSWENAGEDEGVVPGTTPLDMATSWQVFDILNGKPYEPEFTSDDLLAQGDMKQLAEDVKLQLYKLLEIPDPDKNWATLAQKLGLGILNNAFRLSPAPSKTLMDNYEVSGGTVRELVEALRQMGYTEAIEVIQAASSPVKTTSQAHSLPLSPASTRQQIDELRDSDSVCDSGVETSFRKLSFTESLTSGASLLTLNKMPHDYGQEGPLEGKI", "sequence (Q00653 whole entry, looked up)": "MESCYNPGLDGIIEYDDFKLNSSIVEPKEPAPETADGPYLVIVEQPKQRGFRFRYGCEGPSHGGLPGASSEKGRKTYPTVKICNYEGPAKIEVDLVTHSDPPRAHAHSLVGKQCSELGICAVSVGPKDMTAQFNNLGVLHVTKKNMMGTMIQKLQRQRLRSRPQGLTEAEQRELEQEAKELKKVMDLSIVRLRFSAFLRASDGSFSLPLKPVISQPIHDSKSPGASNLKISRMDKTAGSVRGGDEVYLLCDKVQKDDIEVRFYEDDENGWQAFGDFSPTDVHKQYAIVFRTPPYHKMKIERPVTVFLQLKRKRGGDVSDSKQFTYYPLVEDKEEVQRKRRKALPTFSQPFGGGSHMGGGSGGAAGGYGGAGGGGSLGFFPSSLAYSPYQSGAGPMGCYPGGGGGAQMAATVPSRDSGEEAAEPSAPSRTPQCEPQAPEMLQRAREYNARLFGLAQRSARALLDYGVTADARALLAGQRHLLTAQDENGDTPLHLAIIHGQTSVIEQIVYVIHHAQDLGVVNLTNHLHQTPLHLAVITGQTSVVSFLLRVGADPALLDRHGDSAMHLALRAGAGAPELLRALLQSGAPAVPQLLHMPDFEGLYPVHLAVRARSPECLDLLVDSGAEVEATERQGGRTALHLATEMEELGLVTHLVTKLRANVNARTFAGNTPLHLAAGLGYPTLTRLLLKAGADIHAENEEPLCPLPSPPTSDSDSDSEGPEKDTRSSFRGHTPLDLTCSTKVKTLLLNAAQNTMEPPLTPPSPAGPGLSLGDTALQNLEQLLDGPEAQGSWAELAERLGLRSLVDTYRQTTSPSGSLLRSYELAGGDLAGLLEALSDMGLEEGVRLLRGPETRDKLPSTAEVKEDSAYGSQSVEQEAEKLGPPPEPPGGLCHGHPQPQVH", "sequence (Q04206 whole entry, looked up)": "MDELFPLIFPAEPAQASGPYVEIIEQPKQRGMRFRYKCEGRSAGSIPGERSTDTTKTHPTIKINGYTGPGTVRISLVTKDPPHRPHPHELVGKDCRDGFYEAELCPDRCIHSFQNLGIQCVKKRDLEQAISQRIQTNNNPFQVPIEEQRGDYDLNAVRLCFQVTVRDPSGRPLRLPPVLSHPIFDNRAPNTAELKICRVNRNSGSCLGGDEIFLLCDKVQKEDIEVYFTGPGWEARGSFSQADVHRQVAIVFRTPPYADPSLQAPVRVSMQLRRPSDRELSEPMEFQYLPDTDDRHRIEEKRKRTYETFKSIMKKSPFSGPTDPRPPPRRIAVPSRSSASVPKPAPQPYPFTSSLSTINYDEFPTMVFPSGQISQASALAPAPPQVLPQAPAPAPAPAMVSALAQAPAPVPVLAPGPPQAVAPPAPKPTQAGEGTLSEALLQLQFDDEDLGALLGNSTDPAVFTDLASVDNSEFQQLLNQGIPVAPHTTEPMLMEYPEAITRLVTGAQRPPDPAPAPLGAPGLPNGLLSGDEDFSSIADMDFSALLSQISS", "experiment": "Activation of NFkappaB (unknown origin) transfected in mouse 3T3SA cells incubated for 2.5 hrs", "format": "cell-based", "settings": "filed as activator"}, "3T3SA [6]": {"system": "3T3SA", "experiment": "Induction of apoptosis in mouse 3T3SA cells assessed as cell morphological changes incubated for 2.5 hrs by transmission electron microscopic analysis", "format": "toxicity, cell-based"}, "MEF [7]": {"system": "MEF", "experiment": "Induction of apoptosis in TNF-/- MEF cells incubated for 18 hrs by Cell Titer-Glo luminescent cell viability assay", "format": "toxicity, cell-based", "settings": "mouse"}, "3T3SA [8]": {"system": "3T3SA", "experiment": "Induction of apoptosis in vICA expression plasmid transfected mouse 3T3SA cells co-transfected with shRNA-resistant RIP3 incubated for 12 hrs by Cell Titer-Glo luminescent cell viability assay", "format": "toxicity, cell-based"}, "SVEC4-10 [9]": {"system": "SVEC4-10", "experiment": "Induction of apoptosis in mouse SVEC4-10 cells transfected with MCMV M45-encoded vIRA incubated for 18 hrs by Cell Titer-Glo luminescent cell viability assay", "format": "toxicity, cell-based", "settings": "svec4-10, 18 h"}, "SVEC4-10 [10]": {"system": "SVEC4-10", "experiment": "Inhibition of DAI-induced necroptosis in wildtype MCMV infected mouse SVEC4-10 cells assessed as increase in cell viability at 10 uM incubated for 18 hrs in presence of zVAD by Cell Titer-Glo luminescent cell viability assay", "format": "functional, cell-based"}, "L929": {"system": "L929", "experiment": "Inhibition of TLR-3 induced necroptosis in mouse L929 cells assessed as increase in cell viability upto 10 uM incubated for 18 hrs in presence of poly(I:C) and zVAD by Cell Titer-Glo luminescent cell viability assay", "format": "functional, cell-based"}, "MEF [11]": {"system": "MEF", "experiment": "Induction of apoptosis in Casp8-/- MEF cells incubated for 18 hrs by Cell Titer-Glo luminescent cell viability assay", "format": "toxicity, cell-based", "settings": "mouse"}, "3T3SA [12]": {"system": "3T3SA", "experiment": "Induction of apoptosis in RIP3 shRNA transfected mouse 3T3SA cells co-transfected with shRNA resistant RIP3 D143N mutant assessed as accumulation of FLAG-tagged RIP3 D143N mutant in pellet incubated for 3 hrs in presence of zVAD by immunoblot analysis", "format": "toxicity, cell-based"}, "3T3SA [13]": {"system": "3T3SA", "experiment": "Induction of apoptosis in vICA expression plasmid transfected mouse 3T3SA cells co-transfected with shRNA-resistant RIP3 mutRHIM incubated for 12 hrs by Cell Titer-Glo luminescent cell viability assay", "format": "toxicity, cell-based"}, "BMDM": {"system": "BMDM", "experiment": "Induction of apoptosis in mouse BMDM cells expressing wildtype RIP3 incubated for 18 hrs by Cell Titer-Glo luminescent cell viability assay", "format": "toxicity, cell-based"}, "SVEC4-10 [14]": {"system": "SVEC4-10", "experiment": "Inhibition of DAI-induced necroptosis in wildtype MCMV infected mouse SVEC4-10 cells assessed as increase in cell viability at 10 uM incubated for 18 hrs by Cell Titer-Glo luminescent cell viability assay", "format": "functional, cell-based"}, "[15]": {"biological_target": "MAP kinase-interacting serine/threonine-protein kinase 1 (Homo sapiens) (UniProt Q9BUB5)", "sequence (Q9BUB5 whole entry, looked up)": "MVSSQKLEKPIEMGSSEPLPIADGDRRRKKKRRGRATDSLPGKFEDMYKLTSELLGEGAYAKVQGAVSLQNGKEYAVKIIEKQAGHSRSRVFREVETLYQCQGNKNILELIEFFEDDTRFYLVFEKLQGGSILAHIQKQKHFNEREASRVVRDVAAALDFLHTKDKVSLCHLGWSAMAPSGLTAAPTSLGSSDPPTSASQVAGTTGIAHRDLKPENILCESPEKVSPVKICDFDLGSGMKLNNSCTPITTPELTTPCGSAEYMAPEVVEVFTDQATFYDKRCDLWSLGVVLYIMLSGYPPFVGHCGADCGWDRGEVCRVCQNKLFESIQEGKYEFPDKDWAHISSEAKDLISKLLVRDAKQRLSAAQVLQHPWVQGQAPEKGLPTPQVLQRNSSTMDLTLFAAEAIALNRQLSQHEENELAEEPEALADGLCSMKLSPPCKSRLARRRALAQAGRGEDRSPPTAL", "experiment": "Inhibition of human MNK1 using myelin basic protein as substrate at 1 uM in presence of 32P-ATP by Hotspot assay relative to control; values are per cent of control"}}, "note": "The source made the active and inactive calls. The calls are words filed in the database; no cut-off is given here."}
{"smiles": "CC(C)S(=O)(=O)c1ccc2nccc(Nc3ccc4scnc4c3)c2c1", "values": [{"measurement": "Activity", "setting": "3T3SA [1]", "result": 12.1, "unit": "%"}, {"measurement": "Activity", "setting": "3T3SA [2]", "result": "Non-Toxic"}, {"measurement": "Activity", "setting": "MEF [3]", "result": "Toxic"}, {"measurement": "Activity", "setting": "MEF [4]", "result": "Toxic"}, {"measurement": "Activity", "setting": "[5]", "result": "Active"}, {"measurement": "Activity", "setting": "3T3SA [6]", "result": "Toxic"}, {"measurement": "Activity", "setting": "MEF [7]", "result": "Toxic"}, {"measurement": "Activity", "setting": "3T3SA [8]", "result": "Non-Toxic"}, {"measurement": "Activity", "setting": "SVEC4-10 [9]", "result": "Non-Toxic"}, {"measurement": "inhibition", "setting": "SVEC4-10 [10]", "result": "Active"}, {"measurement": "inhibition", "setting": "L929", "result": "Active"}, {"measurement": "Activity", "setting": "MEF [11]", "result": "Non-Toxic"}, {"measurement": "Activity", "setting": "3T3SA [12]", "result": "Toxic"}, {"measurement": "Activity", "setting": "3T3SA [13]", "result": "Non-Toxic"}, {"measurement": "Activity", "setting": "BMDM", "result": "Toxic"}, {"measurement": "inhibition", "setting": "SVEC4-10 [14]", "result": "inactive"}]}
{"smiles": "CNC(=O)c1ccc2c(c1)ncn2-c1ccc(CC(=O)OC(C)(C)C)cc1", "values": [{"measurement": "residual activity", "setting": "[15]", "result": 99.7, "unit": "%"}]}
